# Data as given in patent publication US20230200390A1, “SELECTIVE HERBICIDES BASED ON SUBSTITUTED ISOXAZOLIN CARBOXAMIDES AND MEFENPYR-DIETHYL” (BAYER AKTIENGESELLSCHAFT, priority 2020, published 2023).
# Columns and labels:
# Format in all cases: in vivo
# [1] = system: spring barley, HORVS Montoya; test: Tank-mix; post-emergence: crop damage by herbicide with/without safener mefenpyr-diethyl
# Protocol: (§1) Seeds of crops (spring wheat, TRZAS; spring barley, HORVS; maize, ZEAMA) were placed in sandy loam soil in peat pots, covered with soil and cultivated in a greenhouse under good growth conditions. Two to three weeks after sowing, the test plants were treated at the 1 to 3-leaf stage. The herbicide/safener active compound combinations according to the invention, formulated as wettable powders or emulsion concentrates, and, in parallel tests, the correspondingly formulated individual active compounds were sprayed onto the green parts of the plants in various dosages using an amount of water of 300 l/ha (converted).
# (§2) The pots were returned under good growing conditions in a glasshouse and a visual assessment of herbicidal effects was made at intervals from 1 to 3 weeks after herbicide application (DAT=days after treatment). Assessment was on a percentage basis in comparison with untreated control plants (0%=no injury, 100%=complete kill).
# [2] = system: spring wheat, TRZAS Triso; test: as above
# Protocol: as §1, §2
# [3] = system: spring barley, HORVS Montoya; test: Seed treatment with safener; post-emergence herbicide, crop damage; conditions: for HER effect + SAF / Reduction [%] / Reduction [Difference]: mefenpyr-diethyl 0.5 g a.i./kg seed
# Description: (§3) For safener seed treatment trials, sufficient seed amounts of the respective crops (spring wheat (TRZAS); spring barley (HORVS)) were weighed into screw cap glass bottles with a minimum volume trice of the seeds.
# (§4) As a first step, specified safeners formulated as wettable powder (WP) or wettable granules (WG) were weighed out for the required dosages (g a.i./kg seed), corresponding to the seed amounts. The safener amounts were mixed with a coloured slurry blind formulation type, prediluted with milk at 3.5% fat rate (25 mgs slurry formulation plus 2 ml milk per 10 grams of seed). A tube roller was used for coating. The solutions were gradually pipetted each on the rotating seeds followed by coating for min. 3 hours until all liquid had been soaked up by the seeds. Thereafter, the coated seeds were put flat on open trays for drying over night at room temperature.
# (§5) Treated seeds were then placed into pots (7 cm diameter) on the surface of sandy loam, pressed down, flat covered with additional soil and finally covered with sandy soil, also pressed down, watered, and kept under good growth conditions in a greenhouse, until the plants had reached 2-leaf-stage (BBCH 12).
# (§6) At that stage, post-emergence application of the specified herbicides was done on:
# (§7) a) pot sets containing plants with safener-coated seeds as described above,
# (§8) b) as a reference, pot sets of plants without seed treatment.
# (§9) The herbicides were formulated as wettable powder (WP). Equivalent to the spray area, compound amounts were weighed out and diluted related to the water application rate (300 l/ha) to an aqueous suspension plus additive (1 l/ha MERO). Dosage related equivalents were conventionally sprayed on trays with the potted plants.
# (§10) After application, the test plants were kept under good growth conditions in a greenhouse.
# (§11) Assessment timings were 10 and 21 days after treatment (DAT) with the herbicide, by visual scoring of the crop damage in % (comparison of untreated with treated plants, either sprayed only with herbicide or with herbicide on plants with treated seeds).
# [4] = system: spring wheat, TRZAS Triso; test: as above; conditions: for HER effect + SAF [%] (crop damage) / Reduction [%] / Reduction [Difference]: mefenpyr-diethyl 0.5 g a.i./kg seed; for HER effect [%] (crop damage, herbicide without safener): no safener
# Description: as §3, §4, §5, §6, §7, §8, §9, §10, §11
# [5] = HER 8 g a.i./ha + mefenpyr-diethyl 50 g a.i./ha, 21 DAT
# [6] = HER 32 g a.i./ha + mefenpyr-diethyl 100 g a.i./ha, 21 DAT
# [7] = herbicide alone 32 g a.i./ha, 21 DAT
# [8] = HER 8 g a.i./ha + mefenpyr-diethyl 50 g a.i./ha, 10 DAT
# [9] = HER 32 g a.i./ha + mefenpyr-diethyl 100 g a.i./ha, 10 DAT
# [10] = herbicide alone 8 g a.i./ha, 10 DAT
# [11] = herbicide alone 32 g a.i./ha, 10 DAT
# [12] = HER 8 g a.i./ha post-emergence, 21 DAT
# [13] = HER 32 g a.i./ha post-emergence, 21 DAT
# [14] = HER 24 g a.i./ha + mefenpyr-diethyl 100 g a.i./ha, 21 DAT
# [15] = herbicide alone 24 g a.i./ha, 21 DAT
# [16] = HER 1.5 g a.i./ha + mefenpyr-diethyl 50 g a.i./ha, 21 DAT
# [17] = HER 6 g a.i./ha + mefenpyr-diethyl 50 g a.i./ha, 21 DAT
# [18] = HER 24 g a.i./ha post-emergence, 21 DAT
# [19] = HER 8 g a.i./ha post-emergence, 10 DAT
# [20] = HER 32 g a.i./ha post-emergence, 10 DAT
smiles,measurement,setting,value
C=CC1(C(=O)NC2COC(C(=O)OC)C2)CC(c2cc(C)cc(F)c2)=NO1 (mixture of isomers) [Example 1.71],HER effect + SAF,[1]; [5],20%
same,Reduction [%],[1]; [5],60%
same,Reduction [Difference],[1]; [5],30
same,HER effect + SAF,[1]; [6],50%
same,Reduction [%],[1]; [6],29%
same,Reduction [Difference],[1]; [6],20
same,HER effect,"[1]; herbicide alone 8 g a.i./ha, 21 DAT",50%
same,HER effect,[1]; [7],70%
same,HER effect + SAF,[2]; [8],0%
same,Reduction [%],[2]; [8],100%
same,Reduction [Difference],[2]; [8],50
same,HER effect + SAF,[2]; [9],20%
same,Reduction [%],[2]; [9],76%
same,Reduction [Difference],[2]; [9],65
same,HER effect,[2]; [10],50%
same,HER effect,[2]; [11],85%
same,HER effect + SAF,[3]; [12],30%
same,Reduction [%],[3]; [12],40%
same,Reduction [Difference],[3]; [12],20
same,HER effect + SAF,[3]; [13],40%
same,Reduction [%],[3]; [13],43%
same,Reduction [Difference],[3]; [13],30
same,HER effect,"[3]; herbicide alone 8 g a.i./ha post-emergence, 21 DAT",50%
same,HER effect,"[3]; herbicide alone 32 g a.i./ha post-emergence, 21 DAT",70%
same,HER effect + SAF [%] (crop damage),"[4]; 10 DAT, HER dose 8 g a.i./ha",0%
same,Reduction [%],"[4]; 10 DAT, HER dose 8 g a.i./ha",100%
same,Reduction [Difference],"[4]; 10 DAT, HER dose 8 g a.i./ha",50
same,"HER effect [%] (crop damage, herbicide without safener)","[4]; 10 DAT, HER dose 8 g a.i./ha",50%
same,HER effect + SAF [%] (crop damage),"[4]; 10 DAT, HER dose 32 g a.i./ha",0%
same,Reduction [%],"[4]; 10 DAT, HER dose 32 g a.i./ha",100%
same,Reduction [Difference],"[4]; 10 DAT, HER dose 32 g a.i./ha",85
same,"HER effect [%] (crop damage, herbicide without safener)","[4]; 10 DAT, HER dose 32 g a.i./ha",85%
C=CC1(C(=O)NC2C=C(C(=O)OCC#N)OC2)CC(c2cc(F)cc(F)c2)=NO1 (centres unmarked) [Example 1.91],HER effect + SAF,[1]; [14],10%
same,Reduction [%],[1]; [14],67%
same,Reduction [Difference],[1]; [14],20
same,HER effect,[1]; [15],30%
same,HER effect + SAF,[2]; [16],0%
same,Reduction [%],[2]; [16],100%
same,Reduction [Difference],[2]; [16],70
same,HER effect + SAF,[2]; [17],20%
same,Reduction [%],[2]; [17],78%
same,Reduction [Difference],[2]; [17],70
same,HER effect + SAF,[2]; [14],50%
same,Reduction [%],[2]; [14],38%
same,Reduction [Difference],[2]; [14],30
same,HER effect,"[2]; herbicide alone 1.5 g a.i./ha, 21 DAT",70%
same,HER effect,"[2]; herbicide alone 6 g a.i./ha, 21 DAT",90%
same,HER effect,[2]; [15],80%
same,HER effect + SAF,[3]; [18],10%
same,Reduction [%],[3]; [18],67%
same,Reduction [Difference],[3]; [18],20
same,HER effect,"[3]; herbicide alone 24 g a.i./ha post-emergence, 21 DAT",30%
same,HER effect + SAF [%] (crop damage),"[4]; 21 DAT, HER dose 1.5 g a.i./ha",10%
same,Reduction [%],"[4]; 21 DAT, HER dose 1.5 g a.i./ha",86%
same,Reduction [Difference],"[4]; 21 DAT, HER dose 1.5 g a.i./ha",60
same,"HER effect [%] (crop damage, herbicide without safener)","[4]; 21 DAT, HER dose 1.5 g a.i./ha",70%
same,HER effect + SAF [%] (crop damage),"[4]; 21 DAT, HER dose 6 g a.i./ha",20%
same,Reduction [%],"[4]; 21 DAT, HER dose 6 g a.i./ha",78%
same,Reduction [Difference],"[4]; 21 DAT, HER dose 6 g a.i./ha",70
same,"HER effect [%] (crop damage, herbicide without safener)","[4]; 21 DAT, HER dose 6 g a.i./ha",90%
same,HER effect + SAF [%] (crop damage),"[4]; 21 DAT, HER dose 24 g a.i./ha",10%
same,Reduction [%],"[4]; 21 DAT, HER dose 24 g a.i./ha",88%
same,Reduction [Difference],"[4]; 21 DAT, HER dose 24 g a.i./ha",70
same,"HER effect [%] (crop damage, herbicide without safener)","[4]; 21 DAT, HER dose 24 g a.i./ha",80%
COC(=O)C1CC(NC(=O)C2(OC)CC(c3cc(F)cc(F)c3)=NO2)CO1 (mixture of isomers) [Example 1.72],HER effect + SAF,[1]; [8],0%
same,Reduction [%],[1]; [8],100%
same,Reduction [Difference],[1]; [8],30
same,HER effect + SAF,[1]; [9],10%
same,Reduction [%],[1]; [9],80%
same,Reduction [Difference],[1]; [9],40
same,HER effect,[1]; [10],30%
same,HER effect,[1]; [11],50%
same,HER effect + SAF,[2]; [6],10%
same,Reduction [%],[2]; [6],83%
same,Reduction [Difference],[2]; [6],50
same,HER effect,[2]; [7],60%
same,HER effect + SAF,[3]; [19],0%
same,Reduction [%],[3]; [19],100%
same,Reduction [Difference],[3]; [19],30
same,HER effect + SAF,[3]; [20],0%
same,Reduction [%],[3]; [20],100%
same,Reduction [Difference],[3]; [20],50
same,HER effect,"[3]; herbicide alone 8 g a.i./ha post-emergence, 10 DAT",30%
same,HER effect,"[3]; herbicide alone 32 g a.i./ha post-emergence, 10 DAT",50%
same,HER effect + SAF [%] (crop damage),"[4]; 21 DAT, HER dose 8 g a.i./ha",0%
same,Reduction [%],"[4]; 21 DAT, HER dose 8 g a.i./ha",100%
same,Reduction [Difference],"[4]; 21 DAT, HER dose 8 g a.i./ha",20
same,"HER effect [%] (crop damage, herbicide without safener)","[4]; 21 DAT, HER dose 8 g a.i./ha",20%
same,HER effect + SAF [%] (crop damage),"[4]; 21 DAT, HER dose 32 g a.i./ha",10%
same,Reduction [%],"[4]; 21 DAT, HER dose 32 g a.i./ha",83%
same,Reduction [Difference],"[4]; 21 DAT, HER dose 32 g a.i./ha",50
same,"HER effect [%] (crop damage, herbicide without safener)","[4]; 21 DAT, HER dose 32 g a.i./ha",60%
